Test results: the supplement of paper PMC13380429

How the values were obtained:
Settings in all cases: 72 h
[1] = system: U2OS; experiment: cell viability relative to DMSO; higher = less toxic
[2] = system: Calu-3; experiment: as above
[3] = system: Vero E6; experiment: as above
[4] = system: HepG2; experiment: as above
[5] = system: Caco-2; experiment: as above
[6] = system: U2OS; experiment: relative viability EC50 (midpoint between 100% and the lowest measured viability); higher = less toxic
[7] = system: Calu-3; experiment: as above
[8] = system: Vero E6; experiment: as above
[9] = system: HepG2; experiment: as above
[10] = system: Caco-2; experiment: as above
[11] = system: U2OS; experiment: drug sensitivity score (DSS) for viability; higher = more toxic; extreme values may be limits of the assay
[12] = system: Calu-3; experiment: as above
[13] = system: Vero E6; experiment: as above
[14] = system: HepG2; experiment: as above
[15] = system: Caco-2; experiment: as above

| Compound | cell viability ([1]; 1 nM) | cell viability ([1]; 10 nM) | cell viability ([1]; 100 nM) | cell viability ([1]; 1000 nM) | cell viability ([1]; 10000 nM) | cell viability ([2]; 1 nM) | cell viability ([2]; 10 nM) | cell viability ([2]; 100 nM) | cell viability ([2]; 1000 nM) | cell viability ([2]; 10000 nM) | cell viability ([3]; 1 nM) | cell viability ([3]; 10 nM) | cell viability ([3]; 100 nM) | cell viability ([3]; 1000 nM) | cell viability ([3]; 10000 nM) | cell viability ([4]; 1 nM) | cell viability ([4]; 10 nM) | cell viability ([4]; 100 nM) | cell viability ([4]; 1000 nM) | cell viability ([4]; 10000 nM) | cell viability ([5]; 1 nM) | cell viability ([5]; 10 nM) | cell viability ([5]; 100 nM) | cell viability ([5]; 1000 nM) | cell viability ([5]; 10000 nM) | relative viability EC50 [6] | relative viability EC50 [7] | relative viability EC50 [8] | relative viability EC50 [9] | relative viability EC50 [10] | drug sensitivity score [11] | drug sensitivity score [12] | drug sensitivity score [13] | drug sensitivity score [14] | drug sensitivity score [15] |
| --- | --- | --- | --- | --- | --- | --- | --- | --- | --- | --- | --- | --- | --- | --- | --- | --- | --- | --- | --- | --- | --- | --- | --- | --- | --- | --- | --- | --- | --- | --- | --- | --- | --- | --- | --- |
| NC1CCN(c2c(F)cc3c(=O)c(C(=O)O)cn(C4CC4)c3c2Cl)C1 (stereo not given) [clinafloxacin] | 95% | 102% | 97.5% | 102% | 102% | 95.5% | 94.4% | 94.7% | 97.6% | 99.5% | 102% | 97% | 95% | 98.7% | 104% | 115% | 97% | 108% | 97.3% | 109% | 98.7% | 100% | 89.7% | 106% | 108% | > 10 µM | > 10 µM | > 10 µM | > 10 µM | > 10 µM | 0 | 0 | 0 | 0 | 0 |
| COc1cccc2c1C(=O)c1c(O)c3c(c(O)c1C2=O)C[C@@](O)(C(C)=O)C[C@@H]3O[C@H]1C[C@H](N)[C@H](O)[C@H](C)O1 [daunorubicin] | 96.6% | 103% | 80.9% | 2.4% | 0.1% | 99.7% | 96% | 69.3% | 29.4% | 16.1% | 93.7% | 97.8% | 87.9% | 54.3% | 4.6% | 108% | 75.8% | 43.3% | 2% | 0.2% | 86.3% | 93.4% | 74.6% | 29.8% | 28% | 0.187 µM | 0.177 µM | 0.963 µM | 0.059 µM | 0.145 µM | 20.7 | 16.9 | 10.8 | 25.7 | 15.8 |
| COc1cc2c(cc1OC)-c1c(C)c3ccc(OC)c(OC)c3c[n+]1CC2 [dehydrocorydaline] | 99.1% | 101% | 98.6% | 100% | 97.1% | 96.4% | 105% | 91.2% | 102% | 100% | 95.9% | 100% | 99.6% | 94.8% | 98.5% | 98.6% | 99.4% | 95.1% | 94.2% | 95.7% | 97.6% | 100% | 92.5% | 101% | 88.8% | > 10 µM | > 10 µM | > 10 µM | > 10 µM | > 10 µM | 0 | 0 | 0 | 0 | 0 |
| COc1ccc(-c2cc(C(F)F)nn2-c2ccc(S(N)(=O)=O)cc2)cc1F [deracoxib] | 91.3% | 90.2% | 93.7% | 88.7% | 107% | 100% | 93.8% | 104% | 93.3% | 109% | 97.3% | 99.7% | 94.2% | 101% | 98.8% | 96.4% | 112% | 90.5% | 89.7% | 86.5% | 99.9% | 93.5% | 98.1% | 98.6% | 102% | > 10 µM | > 10 µM | > 10 µM | > 10 µM | > 10 µM | 0 | 0 | 0 | 1.5 | 0 |
| CC(C)(C)C(=O)OCC(=O)[C@H]1CC[C@H]2[C@@H]3CCC4=CC(=O)CC[C@]4(C)[C@H]3CC[C@]12C [desoxycorticosterone-pivalate] | 101% | 98.1% | 99.1% | 99.4% | 97.9% | 98.9% | 90.9% | 98.6% | 89.2% | 101% | 102% | 99% | 101% | 99.8% | 101% | 97% | 98.8% | 95.7% | 89% | 98.2% | 104% | 97% | 103% | 99.7% | 95.3% | > 10 µM | > 10 µM | > 10 µM | > 10 µM | > 10 µM | 0 | 0 | 0 | 0 | 0 |
| CN(C)CCOC(c1ccccc1)c1ccccc1.Cn1c(=O)c2[nH]c(Cl)nc2n(C)c1=O [dimenhydrinate] | 102% | 96.5% | 98% | 102% | 106% | 103% | 94.4% | 97.2% | 99.2% | 98% | 93.8% | 99.7% | 96.2% | 100% | 103% | 95.7% | 103% | 110% | 107% | 106% | 96.3% | 88.1% | 88.1% | 104% | 99.5% | > 10 µM | > 10 µM | > 10 µM | > 10 µM | > 10 µM | 0 | 0 | 0 | 0 | 0 |
| O=C(Nc1ccccc1)OCC(CN1CCCCC1)OC(=O)Nc1ccccc1 (stereo not given) [diperodon] | 95.5% | 93.6% | 94.5% | 91.8% | 94.4% | 112% | 122% | 93.3% | 104% | 98.8% | 90.9% | 95.5% | 87% | 96.6% | 100% | 100% | 97.8% | 96.1% | 110% | 103% | 87.6% | 89.7% | 87.6% | 83% | 95.5% | > 10 µM | > 10 µM | > 10 µM | > 10 µM | > 10 µM | 0 | 0 | 0 | 0 | 0 |
| CC(CCc1ccc(O)cc1)NCCc1ccc(O)c(O)c1 (stereo not given) [dobutamine] | 101% | 96.6% | 97.7% | 102% | 98% | 90.2% | 79.6% | 92.8% | 96.9% | 105% | 106% | 103% | 97.1% | 98.5% | 103% | 106% | 110% | 93.1% | 96.7% | 93.3% | 106% | 99.2% | 99.3% | 95% | 104% | > 10 µM | > 10 µM | > 10 µM | > 10 µM | > 10 µM | 0 | 0 | 0 | 0 | 0 |
| CCOC(=O)/C=C(C)/C=C/C=C(C)/C=C/c1c(C)cc(OC)c(C)c1C [etretinate] | 96% | 101% | 98.1% | 100% | 99.5% | 101% | 101% | 97.5% | 106% | 109% | 97.9% | 96.6% | 93% | 98.5% | 108% | 94.2% | 99.4% | 103% | 102% | 102% | 100% | 107% | 92.2% | 111% | 95.3% | > 10 µM | > 10 µM | > 10 µM | > 10 µM | > 10 µM | 0 | 0 | 0 | 0 | 0 |
| CC(C)c1cc(-c2n[nH]c(=O)n2-c2ccc3c(ccn3C)c2)c(O)cc1O [ganetespib] | 98.4% | 96.7% | 3.7% | 3.4% | 1.5% | 91.5% | 95.9% | 47.8% | 35.7% | 32.5% | 101% | 107% | 46.3% | 25.9% | 29.1% | 97.7% | 56.6% | 2.3% | 1.2% | 1.1% | 99.9% | 95.4% | 37.4% | 35.2% | 29.3% | 0.0307 µM | 0.0478 µM | 0.0685 µM | 0.0114 µM | 0.0369 µM | 30.2 | 19.1 | 19.9 | 35.3 | 21.3 |
| CO/N=C1\CN(c2nc3c(cc2F)c(=O)c(C(=O)O)cn3C2CC2)CC1CN (stereo not given) [gemifloxacin] | 97% | 102% | 97.3% | 100% | 94.3% | 99.6% | 98.5% | 98.4% | 98.5% | 105% | 103% | 102% | 102% | 102% | 95.7% | 105% | 108% | 105% | 100% | 86.8% | 92.2% | 114% | 105% | 96.9% | 95.9% | > 10 µM | > 10 µM | > 10 µM | > 10 µM | > 10 µM | 0 | 0 | 0 | 0.1 | 0 |
| Cc1cc2c(C(C)C)c(O)c(O)c(C=O)c2c(O)c1-c1c(C)cc2c(C(C)C)c(O)c(O)c(C=O)c2c1O [gossypol] | 96.8% | 101% | 98.6% | 95.9% | 11.9% | 100% | 100% | 103% | 103% | 36.9% | 100% | 98.1% | 97.6% | 98.6% | 13.1% | 102% | 96.3% | 95.3% | 96.1% | 9.6% | 101% | 104% | 107% | 90.9% | 0.8% | 2.81 µM | 3.4 µM | 3.05 µM | 2.84 µM | 2.41 µM | 5.5 | 3.2 | 5 | 5.6 | 7 |
| CC(CNC1CCCCC1)OC(=O)c1ccccc1 (stereo not given) [hexylcaine] | 103% | 101% | 99.1% | 103% | 104% | 104% | 107% | 95.2% | 103% | 95.5% | 97.3% | 102% | 96.8% | 93.1% | 105% | 106% | 102% | 91% | 88.5% | 102% | 99% | 88.5% | 98% | 105% | 102% | > 10 µM | > 10 µM | > 10 µM | > 10 µM | > 10 µM | 0 | 0 | 0 | 0 | 0 |
| C=CCc1ccc(O)c(-c2ccc(O)c(CC=C)c2)c1 [honokiol] | 94.4% | 95.1% | 99.3% | 99.4% | 88.9% | 104% | 111% | 94.4% | 96.6% | 97% | 95.7% | 98.9% | 97.7% | 95.4% | 107% | 108% | 109% | 109% | 93.2% | 88.4% | 93.8% | 94.3% | 102% | 90.1% | 90.9% | > 10 µM | > 10 µM | > 10 µM | > 10 µM | > 10 µM | 0 | 0 | 0 | 0.2 | 0 |
